According to EP1034782A1, “Treatment of depression by using compounds which elevate the intracellular sodium concentration” (Singer, Andrea, priority 1999, dated 2000):
pIC50: −log10 of the molar value.

Key:
human platelets = assay: Measuring [Na^+]i with SBFI/AM fluorescence in platelets; type: cell-based; settings: for [Na^+]i elevated from basal levels up to: highest concentration investigated: 50 µM hyperforin, 10 µM monensin, platelets, SBFI fluorescence
Method: Solutions: The Na^+-HEPES buffer consisted 10 mM HEPES, 1 mM MgSO4, 5 mM KH2PO4, 5 mM KCI and 5 mM Glucose (4). The pH of this buffer was adjusted to 6.5 with NH3 (for storage of platelets) and to 7.4 for the measurement of fluorescence. The K^+ solution was identical except for complete replacement of sodium by potassium.
Preparation of platelets and loading with SBFI/AM: Venous blood (10 ml) was anticoagulated by mixing it with 1.0 ml citrate solution in a S-Monovette. […] Platelet pellets were obtained from PRP by centifugation at 480 x g for 30 min at room temperature. The pellet was resuspended into Sodium-HEPES buffer, pH 6.5 at a final concentration of 3-4 x 10^8 cells/ml. […] Appropriate amounts of this solution were added to the platelets to yield a final concentration of SBFI/AM of 10 µM and platelets were incubated with the dye for 60 min at 37°C in a shaking water bath. Thereafter, platelets were again centrifuged at 480 x g for 30 min at RT. The supernatant was discarded and the platelets were taken up into sodium-HEPES buffer, pH 6.5 at a concentration of 3-4 x 10^9 cells/ml. The platelet suspension was then stored at RT until used for the fluorescence measurements.
Measurement of SBFI/AM Fluorescence: Aliquots of platelet suspension (4 µl) were added to 950 µl of the appropriate buffer. Fluorescence was measured in quartz cuvettes using a SLM-Aminco luminescence spectrometer before and after addition of the tested drugs. […] All measurements were performed without stirring at room temperature.

GABA = assay: Synaptosomal uptake of GABA; type: cell-based; settings: unpublished observations
serotonin transporter [1] = molecular target: T1, serotonin transporter (Mus musculus, UniProt Q60857); assay: Synaptosomal uptake of ^3H-serotonin (mouse cortex synaptosomes); type: cell-based
T1 construct: Synaptosomal preparations from frontal cortex of female NMRI mice were used for serotonin uptake; from tissue; host or cells: frontal cortex of female NMRI mice (synaptosomes or membranes)
T1 sequence (Q60857 whole entry): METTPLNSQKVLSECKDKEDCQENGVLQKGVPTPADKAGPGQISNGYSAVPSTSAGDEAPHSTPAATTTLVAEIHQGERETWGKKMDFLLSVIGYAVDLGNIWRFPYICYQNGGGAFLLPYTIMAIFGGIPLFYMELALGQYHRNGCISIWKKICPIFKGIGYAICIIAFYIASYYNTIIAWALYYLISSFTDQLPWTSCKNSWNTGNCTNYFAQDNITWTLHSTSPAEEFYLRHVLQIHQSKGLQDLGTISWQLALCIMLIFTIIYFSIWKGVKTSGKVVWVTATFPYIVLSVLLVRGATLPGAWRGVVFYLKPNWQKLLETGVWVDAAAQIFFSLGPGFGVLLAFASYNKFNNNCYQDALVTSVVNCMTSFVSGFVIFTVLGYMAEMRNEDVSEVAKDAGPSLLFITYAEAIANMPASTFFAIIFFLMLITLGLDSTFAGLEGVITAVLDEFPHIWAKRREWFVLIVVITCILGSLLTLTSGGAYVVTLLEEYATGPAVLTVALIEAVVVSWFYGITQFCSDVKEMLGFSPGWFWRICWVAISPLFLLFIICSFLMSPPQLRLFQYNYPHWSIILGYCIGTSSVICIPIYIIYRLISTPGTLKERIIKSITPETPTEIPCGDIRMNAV
Method: Synaptosomal preparations from frontal cortex of female NMRI mice were used for serotonin uptake. The tissue was homogenized in ice cold sucrose solution (0.32 M) and diluted with 10 ml of the homogenizing medium. The nuclear fraction was eliminated by centrifugation at 750 x g for 10 min (Beckman Centrifuge, Model J2-21). […] The probes were cooled, immediately filtered through Whatman GF/B glass fiber filters and washed three times with ice cold buffer solution with a Brandel cell harvester. Filters were placed in plastic scintillation vials containing 4 ml Lumasafe scintillation cocktail (Packard). Radioactivity was measured after 12 hours. Nonspecific uptake was determined in parallel probes maintained throughout on ice or containing unlabelled serotonin (1mM serotonin).

norepinephrine = assay: Synaptosomal uptake of norepinephrine; type: cell-based; settings: unpublished observations
L-glutamate = assay: Synaptosomal uptake of L-glutamate; type: cell-based; settings: unpublished observations
serotonin transporter [2] = molecular target: T1, serotonin transporter; assay: Kinetic analyses of ^3H-serotonin uptake into mouse cortex synaptosomes; type: cell-based; settings: hyperforin 2 µM, citalopram 1 nM, monensin concentration not given in the text
[3] = molecular target: T2, human serotonin transporter (Homo sapiens, UniProt P31645); assay: ^3H-serotonin uptake in platelets; type: cell-based
T2 construct: Blood from normal unmedicated volunteers was anticoagulated; endogenous in cells; host or cells: human platelets from blood of unmedicated volunteers
T2 sequence (P31645 whole entry): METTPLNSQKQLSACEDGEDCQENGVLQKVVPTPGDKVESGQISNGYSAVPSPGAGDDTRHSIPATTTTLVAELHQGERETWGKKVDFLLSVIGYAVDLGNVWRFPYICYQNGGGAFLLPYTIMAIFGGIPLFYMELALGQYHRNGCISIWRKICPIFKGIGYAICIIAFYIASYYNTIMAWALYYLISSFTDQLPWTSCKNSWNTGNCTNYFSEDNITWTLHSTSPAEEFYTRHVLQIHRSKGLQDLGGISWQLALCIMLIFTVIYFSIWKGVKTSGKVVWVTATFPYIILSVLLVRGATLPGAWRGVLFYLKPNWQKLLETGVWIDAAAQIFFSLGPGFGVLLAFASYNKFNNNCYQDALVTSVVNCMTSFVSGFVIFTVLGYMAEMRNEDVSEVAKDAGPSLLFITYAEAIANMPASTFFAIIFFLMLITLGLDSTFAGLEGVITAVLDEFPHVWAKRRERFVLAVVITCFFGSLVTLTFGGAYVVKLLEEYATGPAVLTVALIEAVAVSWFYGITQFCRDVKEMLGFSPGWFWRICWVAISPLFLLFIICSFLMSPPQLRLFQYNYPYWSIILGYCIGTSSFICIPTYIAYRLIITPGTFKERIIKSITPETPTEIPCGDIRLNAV

dopamine = assay: Synaptosomal uptake of dopamine; type: cell-based; settings: unpublished observations
serotonin transporter [4] = molecular target: T1, serotonin transporter; assay: ^3H-paroxetine binding assay (mouse frontal cortex membranes)
Method: Female NMRI mice were sacrified by decapitation. […] The homogenate was centrifuged for 10 min at 35000 x g at 4°C. The resulting pellet was resuspended in 40 volumes of buffer and recentrifuged. The pellet was resuspended in TRIS buffer at a protein concentration of 70 µg/ml. Aliquots of membrane suspension were incubated with ^3H-paroxetine (0.2 nM) at room temperature for 60 minutes. Incubation was terminated by rapid filtration through Whatman GF/B glass fiber filters with a Brandel Cell Harvester. […] The filters were washed 7 times with ice cold buffer, dried and the radioactivity was measured by liquid scintillation spectrometry.

CC(C)=CCCC1(C)C(CC=C(C)C)CC2(CC=C(C)C)C(=O)C(CC=C(C)C)=C(O)C1(C(=O)C(C)C)C2=O (centres unmarked) [Hyperforin]
Maximal elevation of [Na^+]i (human platelets; 50 µM hyperforin, human platelets): about 70 mM | [Na^+]i elevated from basal levels up to (human platelets): 69,0 ± 16,1 mM | incubation time to maximal effect on [Na^+]i (human platelets; hyperforin, human platelets): ≤ 15 min

CC[C@@]1([C@@H]2O[C@@H]([C@H]3O[C@@](O)(CO)[C@H](C)C[C@@H]3C)C[C@@H]2C)CC[C@H]([C@]2(C)CC[C@]3(C[C@H](O)[C@@H](C)[C@@H]([C@@H](C)[C@@H](OC)[C@H](C)C(=O)O)O3)O2)O1 [Monensin]
IC50 synaptosomal uptake of GABA (GABA): nanomolar range | pIC50 (serotonin transporter [1]): 7.32 | IC50 synaptosomal uptake of norepinephrine (norepinephrine): nanomolar range | IC50 synaptosomal uptake of L-glutamate (L-glutamate): nanomolar range | Vmax (serotonin transporter [2]): 0,065 ± 0,009 pM/min/mg protein | [Na^+]i elevated from basal levels up to (human platelets): 140,0 ± 9,1 mM | incubation time to equilibration of [Na^+]i elevation (human platelets; monensin, human platelets): 15 min | pIC50 ([3]; inhibition of ^3H-serotonin uptake into human platelets, Table 3): 6.80 | inhibition at 0.5 µM ([3]; monensin 500 nM, human platelets): ~70% | IC50 synaptosomal uptake of dopamine (dopamine): nanomolar range | pIC50 (serotonin transporter [4]): < 6.00
